Results: patent publication US7635572B2, “Methods for conducting assays for enzyme activity on protein microarrays” (Life Technologies Corporation, priority 2004, dated 2009)

Key:
Test in all cases: Further analysis of a plurality of inhibitors and a plurality of kinases on microarray (Example IX, Table 5);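 further: inhibition of each kinase by the inhibitors is given as a qualitative level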
Format in all cases: biochemical
[1] = molecular target: T1, plurality of kinases (Table 5) (Homo sapiens, UniProt Q12866); details: plate B11; inhibitor 100 uM
T1 sequence (Q12866 21-999): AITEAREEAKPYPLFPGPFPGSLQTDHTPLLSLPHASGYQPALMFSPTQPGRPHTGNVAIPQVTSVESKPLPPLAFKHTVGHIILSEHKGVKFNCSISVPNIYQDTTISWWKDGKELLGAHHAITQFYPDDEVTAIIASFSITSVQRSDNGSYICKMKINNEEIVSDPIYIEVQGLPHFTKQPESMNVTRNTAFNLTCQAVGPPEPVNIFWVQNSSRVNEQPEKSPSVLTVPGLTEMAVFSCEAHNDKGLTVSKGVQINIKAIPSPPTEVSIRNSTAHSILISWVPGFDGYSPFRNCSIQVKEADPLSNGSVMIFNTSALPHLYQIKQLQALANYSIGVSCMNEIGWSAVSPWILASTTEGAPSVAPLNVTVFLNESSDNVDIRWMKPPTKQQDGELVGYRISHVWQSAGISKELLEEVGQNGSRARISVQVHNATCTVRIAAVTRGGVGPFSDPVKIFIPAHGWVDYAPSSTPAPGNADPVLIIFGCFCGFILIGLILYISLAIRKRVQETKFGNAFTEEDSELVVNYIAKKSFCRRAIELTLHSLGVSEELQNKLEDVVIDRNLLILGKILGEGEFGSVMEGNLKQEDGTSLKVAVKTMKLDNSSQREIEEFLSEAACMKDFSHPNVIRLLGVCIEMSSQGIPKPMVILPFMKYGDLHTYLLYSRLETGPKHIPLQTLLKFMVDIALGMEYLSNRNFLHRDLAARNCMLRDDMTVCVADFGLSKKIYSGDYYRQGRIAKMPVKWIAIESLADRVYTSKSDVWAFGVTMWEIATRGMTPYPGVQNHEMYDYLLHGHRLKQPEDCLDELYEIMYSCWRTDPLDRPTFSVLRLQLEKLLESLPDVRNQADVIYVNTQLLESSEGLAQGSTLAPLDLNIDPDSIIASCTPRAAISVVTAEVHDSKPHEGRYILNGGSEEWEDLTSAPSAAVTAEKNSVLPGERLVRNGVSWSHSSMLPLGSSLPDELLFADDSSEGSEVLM

[2] = molecular target: plurality of kinases (Table 5) (Homo sapiens, UniProt Q05655); details: plate B2
[3] = molecular target: plurality of kinases (Table 5) (Homo sapiens, UniProt P00519); details: plate B6
[4] = molecular target: plurality of kinases (Table 5) (Homo sapiens, UniProt Q00536); details: plate A3; inhibitor 100 uM
[5] = molecular target: T2, plurality of kinases (Table 5) (Homo sapiens, UniProt P54753); details: plate B5
T2 sequence (P54753 34-998): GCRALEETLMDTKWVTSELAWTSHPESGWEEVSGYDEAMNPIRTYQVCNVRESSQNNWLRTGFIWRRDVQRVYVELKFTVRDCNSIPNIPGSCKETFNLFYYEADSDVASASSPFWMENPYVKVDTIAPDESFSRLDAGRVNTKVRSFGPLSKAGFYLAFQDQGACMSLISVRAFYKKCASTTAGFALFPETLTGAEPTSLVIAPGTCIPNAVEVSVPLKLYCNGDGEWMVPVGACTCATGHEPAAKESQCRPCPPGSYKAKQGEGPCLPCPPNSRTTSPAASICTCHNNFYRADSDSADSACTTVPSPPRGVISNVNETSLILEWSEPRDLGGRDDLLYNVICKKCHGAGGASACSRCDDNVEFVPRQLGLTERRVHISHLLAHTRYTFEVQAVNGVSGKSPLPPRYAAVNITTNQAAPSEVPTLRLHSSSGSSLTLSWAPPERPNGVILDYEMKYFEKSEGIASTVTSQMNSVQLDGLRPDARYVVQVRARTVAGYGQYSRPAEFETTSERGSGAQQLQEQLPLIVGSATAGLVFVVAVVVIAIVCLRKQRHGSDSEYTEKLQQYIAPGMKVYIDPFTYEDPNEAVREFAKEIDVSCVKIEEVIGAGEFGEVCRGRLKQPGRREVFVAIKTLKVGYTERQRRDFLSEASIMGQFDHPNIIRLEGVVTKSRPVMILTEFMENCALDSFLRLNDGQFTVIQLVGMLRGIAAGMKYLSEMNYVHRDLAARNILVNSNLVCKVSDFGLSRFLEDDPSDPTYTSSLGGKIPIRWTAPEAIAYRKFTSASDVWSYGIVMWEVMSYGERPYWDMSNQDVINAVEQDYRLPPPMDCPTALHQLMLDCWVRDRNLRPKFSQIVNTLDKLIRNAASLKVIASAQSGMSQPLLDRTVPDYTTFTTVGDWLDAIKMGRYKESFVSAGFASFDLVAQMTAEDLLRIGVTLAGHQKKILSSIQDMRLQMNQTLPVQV

[6] = molecular target: plurality of kinases (Table 5) (Homo sapiens, UniProt O75716); details: plate C3
[7] = molecular target: T3, plurality of kinases (Table 5) (Homo sapiens, UniProt Q9Y616); details: plate C9; inhibitor 100 uM
T3 sequence (Q9Y616 1-596): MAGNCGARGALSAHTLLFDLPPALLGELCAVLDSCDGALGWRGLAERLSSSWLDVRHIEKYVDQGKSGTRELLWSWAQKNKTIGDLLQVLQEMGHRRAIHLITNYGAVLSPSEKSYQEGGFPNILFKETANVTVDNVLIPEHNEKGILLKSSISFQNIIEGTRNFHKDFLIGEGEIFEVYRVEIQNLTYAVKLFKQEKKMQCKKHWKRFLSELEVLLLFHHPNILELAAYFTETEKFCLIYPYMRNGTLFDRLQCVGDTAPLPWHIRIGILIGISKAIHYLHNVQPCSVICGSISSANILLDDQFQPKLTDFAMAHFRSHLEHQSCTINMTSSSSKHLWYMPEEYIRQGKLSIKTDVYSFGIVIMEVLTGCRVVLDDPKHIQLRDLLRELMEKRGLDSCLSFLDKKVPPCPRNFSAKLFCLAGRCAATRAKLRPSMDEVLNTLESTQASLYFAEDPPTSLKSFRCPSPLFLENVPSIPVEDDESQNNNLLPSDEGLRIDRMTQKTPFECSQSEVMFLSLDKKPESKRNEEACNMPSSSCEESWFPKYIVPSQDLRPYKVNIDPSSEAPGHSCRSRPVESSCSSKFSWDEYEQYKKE

plurality of kinases (Table 5) (Homo sapiens, UniProt O75716), sequence (O75716 whole entry): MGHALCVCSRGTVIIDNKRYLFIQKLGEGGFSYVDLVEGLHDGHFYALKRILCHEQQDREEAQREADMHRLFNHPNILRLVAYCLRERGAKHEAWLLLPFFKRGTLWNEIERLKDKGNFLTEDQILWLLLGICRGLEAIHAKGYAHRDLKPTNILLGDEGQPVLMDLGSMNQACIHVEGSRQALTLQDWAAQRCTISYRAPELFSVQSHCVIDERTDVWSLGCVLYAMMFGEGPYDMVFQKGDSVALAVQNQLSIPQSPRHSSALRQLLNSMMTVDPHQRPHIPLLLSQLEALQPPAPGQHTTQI
plurality of kinases (Table 5) (Homo sapiens, UniProt Q00536), sequence (Q00536 whole entry): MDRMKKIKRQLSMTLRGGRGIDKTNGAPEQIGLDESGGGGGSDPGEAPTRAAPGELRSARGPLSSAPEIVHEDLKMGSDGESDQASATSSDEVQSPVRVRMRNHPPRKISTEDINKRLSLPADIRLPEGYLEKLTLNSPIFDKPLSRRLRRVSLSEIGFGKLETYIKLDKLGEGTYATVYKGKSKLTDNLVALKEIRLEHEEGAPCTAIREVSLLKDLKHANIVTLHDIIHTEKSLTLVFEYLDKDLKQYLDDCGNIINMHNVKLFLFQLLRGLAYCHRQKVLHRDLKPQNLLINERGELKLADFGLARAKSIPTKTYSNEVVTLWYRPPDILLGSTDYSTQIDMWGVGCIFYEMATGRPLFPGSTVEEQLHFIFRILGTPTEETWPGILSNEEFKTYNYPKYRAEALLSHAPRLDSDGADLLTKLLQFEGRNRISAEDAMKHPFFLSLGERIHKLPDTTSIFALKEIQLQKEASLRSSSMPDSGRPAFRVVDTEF
plurality of kinases (Table 5) (Homo sapiens, UniProt P00519), sequence (P00519 whole entry): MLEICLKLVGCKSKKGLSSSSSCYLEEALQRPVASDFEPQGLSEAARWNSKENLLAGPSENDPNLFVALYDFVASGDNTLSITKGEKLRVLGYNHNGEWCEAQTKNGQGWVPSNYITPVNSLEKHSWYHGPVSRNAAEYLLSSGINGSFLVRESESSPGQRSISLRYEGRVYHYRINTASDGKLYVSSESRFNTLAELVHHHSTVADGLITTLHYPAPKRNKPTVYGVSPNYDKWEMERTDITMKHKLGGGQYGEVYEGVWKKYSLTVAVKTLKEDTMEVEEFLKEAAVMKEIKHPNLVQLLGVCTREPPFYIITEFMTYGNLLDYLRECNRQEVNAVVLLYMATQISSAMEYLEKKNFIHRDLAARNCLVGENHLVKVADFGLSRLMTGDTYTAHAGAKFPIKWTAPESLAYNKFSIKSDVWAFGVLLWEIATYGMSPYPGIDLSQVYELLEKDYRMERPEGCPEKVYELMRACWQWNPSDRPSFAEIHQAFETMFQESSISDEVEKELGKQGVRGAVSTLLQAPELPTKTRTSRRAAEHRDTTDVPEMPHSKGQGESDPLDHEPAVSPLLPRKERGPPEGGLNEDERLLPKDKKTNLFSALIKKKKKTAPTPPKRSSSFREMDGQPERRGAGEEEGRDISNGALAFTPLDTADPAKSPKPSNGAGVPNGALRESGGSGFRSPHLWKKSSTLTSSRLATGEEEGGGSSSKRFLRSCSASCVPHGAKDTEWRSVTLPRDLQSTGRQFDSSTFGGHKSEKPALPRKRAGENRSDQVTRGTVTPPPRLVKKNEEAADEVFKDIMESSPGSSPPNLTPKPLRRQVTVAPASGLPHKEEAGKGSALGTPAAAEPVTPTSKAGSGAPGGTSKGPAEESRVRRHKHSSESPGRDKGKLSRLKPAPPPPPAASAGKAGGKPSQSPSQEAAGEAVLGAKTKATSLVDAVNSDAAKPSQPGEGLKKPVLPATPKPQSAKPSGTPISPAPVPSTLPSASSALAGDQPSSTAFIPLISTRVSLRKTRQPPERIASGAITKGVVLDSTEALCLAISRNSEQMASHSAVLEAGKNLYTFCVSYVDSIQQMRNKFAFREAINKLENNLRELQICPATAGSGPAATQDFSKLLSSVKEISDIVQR
plurality of kinases (Table 5) (Homo sapiens, UniProt Q05655), sequence (Q05655 whole entry): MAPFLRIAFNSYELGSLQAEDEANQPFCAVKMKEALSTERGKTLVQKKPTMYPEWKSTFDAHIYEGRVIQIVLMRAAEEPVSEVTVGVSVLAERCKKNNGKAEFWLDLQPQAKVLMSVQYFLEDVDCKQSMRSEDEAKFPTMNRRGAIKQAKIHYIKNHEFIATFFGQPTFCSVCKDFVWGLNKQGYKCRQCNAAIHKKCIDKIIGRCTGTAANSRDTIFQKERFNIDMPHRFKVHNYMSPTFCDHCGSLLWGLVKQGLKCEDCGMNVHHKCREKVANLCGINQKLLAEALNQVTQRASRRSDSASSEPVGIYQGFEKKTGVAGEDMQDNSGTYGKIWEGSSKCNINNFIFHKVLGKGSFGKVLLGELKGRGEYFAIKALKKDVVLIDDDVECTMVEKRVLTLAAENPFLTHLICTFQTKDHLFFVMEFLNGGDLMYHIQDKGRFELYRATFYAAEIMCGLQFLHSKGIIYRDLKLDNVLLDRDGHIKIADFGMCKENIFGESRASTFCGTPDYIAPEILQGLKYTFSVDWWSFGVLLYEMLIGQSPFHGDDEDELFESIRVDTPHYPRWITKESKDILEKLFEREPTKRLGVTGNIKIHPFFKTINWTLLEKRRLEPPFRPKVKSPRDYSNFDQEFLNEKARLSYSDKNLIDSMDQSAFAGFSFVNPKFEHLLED

Structure (SMILES) | Inhibition level, MERTK [1] | Inhibition level, PRKCD ([2]; inhibitor 100 uM) | Inhibition level, ABL1 ([3]; inhibitor 100 uM) | Inhibition level, PCTK1 [4] | Inhibition level, EPHB3 ([5]; inhibitor 100 uM) | Inhibition level, STK16 ([6]; inhibitor 100 uM) | Inhibition level, IRAK3 [7] | Inhibition level, PRKCD ([2]; Genistein, conc. not given) | Inhibition level, ABL1 ([3]; Genistein, conc. not given) | Inhibition level, EPHB3 ([5]; Genistein, conc. not given) | Inhibition level, STK16 ([6]; Genistein <3.7 mM) | Inhibition level, PRKCD ([2]; Ro-31-8220, conc. not given) | Inhibition level, ABL1 ([3]; Ro-31-8220, conc. not given) | Inhibition level, EPHB3 ([5]; Ro-31-8220, conc. not given) | Inhibition level, STK16 ([6]; Ro-31-8220 90 uM) | Inhibition level, EPHB3 ([5]; Staurosporine, conc. not given) | Inhibition level, STK16 ([6]; Staurosporine 21.5 uM)
N#C/C(=C/c1ccc(O)c(O)c1)C(=O)NCc1ccccc1 [AG 490] | 2 | 0 | 0 | 0 | 2 | 0 | 0 | – | – | – | – | – | – | – | – | – | –
COc1cc2ncnc(Nc3cccc(Cl)c3)c2cc1OC [AG 1478] | 2 | 0 | 1 | 0 | 2 | 0 | 2 | – | – | – | – | – | – | – | – | – | –
O=c1c(-c2ccc(O)cc2)coc2cc(O)cc(O)c12 [Genistein] | 2 | 0 | 0 | 1 | 2 | 0 | 2 | 0 | 0 | 0 | 0 | – | – | – | – | – | –
O=S(=O)(NCCNC/C=C/c1ccc(Br)cc1)c1cccc2cnccc12 [H-89] | 2 | 1 | 0 | 2 | 1 | 2 | 0 | – | – | – | – | – | – | – | – | – | –
CC(C)(C)n1nc(-c2ccc(Cl)cc2)c2c(N)ncnc21 [PP2] | 2 | 0 | – | 1 | 2 | 2 | 2 | – | – | – | – | – | – | – | – | – | –
O=c1c(O)c(-c2ccc(O)c(O)c2)oc2cc(O)cc(O)c12 [Quercetin] | 1 | 0 | – | 0 | 2 | 0 | 0 | – | – | – | – | – | – | – | – | – | –
Cn1cc(C2=C(c3cn(CCCSC(=N)N)c4ccccc34)C(=O)NC2=O)c2ccccc21 [Ro-31-8220] | 2 | 0 | 2 | 0 | 2 | 1 | 2 | – | – | – | – | 2 | 0 | 0 | 2 | – | –
CC(=O)c1c(O)c(C)c(O)c(Cc2c(O)c3c(c(C(=O)/C=C/c4ccccc4)c2O)OC(C)(C)C=C3)c1O [Rottlerin (Mallotoxin)] | 2 | 0 | 0 | 0 | 2 | 0 | 2 | – | – | – | – | – | – | – | – | – | –
CN[C@@H]1C[C@H]2O[C@@](C)([C@@H]1OC)n1c3ccccc3c3c4c(c5c6ccccc6n2c5c31)C(=O)NC4 [Staurosporine] | – | – | – | – | – | – | – | – | – | – | – | – | – | – | – | 0 | 2
